The record followed here is paper PMC11205114, “A Multiomics Perspective on Plant Cell Wall-Degrading Enzyme Production: Insights from the Unexploited Fungus Trichoderma erinaceum” (Journal of Fungi, 2024).

In experiment [1] the target is T1, TrCel3B (Trichoderma reesei, UniProt G0RJ07).
T1 construct: gene cel3b; gene 2622 bp, 96 kDa
T1 sequence (G0RJ07 19-874): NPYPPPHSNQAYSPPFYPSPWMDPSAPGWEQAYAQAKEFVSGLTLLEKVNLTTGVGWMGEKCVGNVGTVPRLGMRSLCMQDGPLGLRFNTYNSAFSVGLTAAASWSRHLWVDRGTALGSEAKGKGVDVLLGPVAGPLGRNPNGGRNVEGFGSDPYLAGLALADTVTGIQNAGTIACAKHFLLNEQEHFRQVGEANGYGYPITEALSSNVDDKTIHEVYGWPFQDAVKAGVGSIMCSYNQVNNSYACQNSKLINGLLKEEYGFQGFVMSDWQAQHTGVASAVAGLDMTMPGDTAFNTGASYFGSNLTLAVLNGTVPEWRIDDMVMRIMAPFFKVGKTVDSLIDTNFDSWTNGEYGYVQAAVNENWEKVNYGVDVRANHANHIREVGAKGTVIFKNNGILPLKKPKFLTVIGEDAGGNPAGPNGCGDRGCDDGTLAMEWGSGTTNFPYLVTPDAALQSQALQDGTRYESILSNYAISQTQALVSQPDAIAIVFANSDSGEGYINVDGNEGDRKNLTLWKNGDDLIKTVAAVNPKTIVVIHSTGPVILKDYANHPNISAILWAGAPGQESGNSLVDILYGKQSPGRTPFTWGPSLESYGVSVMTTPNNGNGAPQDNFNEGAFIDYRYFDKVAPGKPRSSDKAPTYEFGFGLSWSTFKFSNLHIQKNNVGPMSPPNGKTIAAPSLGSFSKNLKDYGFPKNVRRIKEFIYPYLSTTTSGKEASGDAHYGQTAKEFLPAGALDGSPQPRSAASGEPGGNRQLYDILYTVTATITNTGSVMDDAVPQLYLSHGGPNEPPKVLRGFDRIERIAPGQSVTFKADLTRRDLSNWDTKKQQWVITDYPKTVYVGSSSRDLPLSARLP
The experiment can be described thus: pNP release at […] nm. It counts as biochemical. The following applies: pH 5.5, 50 °C (methods; figure legend 60 °C), 30 min.

Experiment [2] addresses T1, TrCel3B. The experiment can be described thus: pNPG hydrolysis, pNP release at […] nm. Particulars: pNPG substrate (5 mM stock), pH 4.5, 60 °C. In kind it is biochemical.

On to `O=[N+]([O-])c1ccc(O[C@@H]2O[C@H](CO)[C@@H](O)[C@H](O)[C@H]2O)cc1` [4-nitrophenyl β-D-glucopyranoside], for which, in experiment [1], the “pNP release at 405 nm” value is “TeBgl3C and TrCel3B displayed the highest specific activities on pNPG”.
Regarding `OC[C@H]1OC(O)[C@H](O)[C@@H](O)[C@@H]1O` (some centres unmarked) [glucose], the “% inhibition” value in experiment [2] is “TeBgl3C showed a slightly higher tolerance to glucose than TrCel3B”.
